How the values were obtained:
Lanosterol synthase = target: T1, Lanosterol synthase (Homo sapiens, UniProt P48449); assay: Inhibition of OSC
T1 sequence (P48449 whole entry): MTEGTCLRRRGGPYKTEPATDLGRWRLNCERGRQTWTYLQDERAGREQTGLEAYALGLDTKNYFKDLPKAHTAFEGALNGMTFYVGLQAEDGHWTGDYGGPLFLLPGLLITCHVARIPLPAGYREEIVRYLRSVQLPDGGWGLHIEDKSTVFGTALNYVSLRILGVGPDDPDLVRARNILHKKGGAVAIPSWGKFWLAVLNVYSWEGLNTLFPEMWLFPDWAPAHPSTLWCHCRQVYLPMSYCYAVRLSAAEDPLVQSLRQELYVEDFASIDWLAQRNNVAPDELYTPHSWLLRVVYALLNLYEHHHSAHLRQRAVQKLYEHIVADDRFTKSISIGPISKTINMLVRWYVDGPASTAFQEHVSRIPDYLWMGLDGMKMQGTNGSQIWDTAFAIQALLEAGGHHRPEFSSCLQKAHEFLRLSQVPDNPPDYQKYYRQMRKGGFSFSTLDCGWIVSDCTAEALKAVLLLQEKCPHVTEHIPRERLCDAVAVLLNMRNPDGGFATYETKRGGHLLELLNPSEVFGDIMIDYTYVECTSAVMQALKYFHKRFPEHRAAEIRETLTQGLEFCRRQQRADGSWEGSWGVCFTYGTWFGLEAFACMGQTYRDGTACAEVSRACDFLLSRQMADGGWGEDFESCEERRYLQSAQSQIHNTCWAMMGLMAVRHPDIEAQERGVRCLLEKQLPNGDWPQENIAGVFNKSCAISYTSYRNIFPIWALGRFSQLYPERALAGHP

[1] = target: T2, Lanosterol synthase (Homo sapiens) (UniProt P48449); assay: Inhibition of OSC at 20 uM
T2 sequence (whole entry): T1 sequence (P48449 whole entry)

Compound	IC50 (Lanosterol synthase) [µM]	inhibition [1] [%]
CCCCCCCCCCCC[N+](C)(C)[O-]	2.15	84
COc1ccc(-n2c(C)cc(C(=O)NCc3ccc(CN(C)C)cc3)c2C)cc1	35.4	

Results, then the molecule that gave them:

IC50 (Lanosterol synthase) [µM]	inhibition [1] [%]	Compound
12.7	86	COc1ccc(-n2c(C)cc(CNCc3ccc(CN(C)C)cc3)c2C)cc1
1.41	128	CN(C)Cc1ccc(CNCc2cnn(-c3ccccc3)n2)cc1
58.8		COc1ccc(-n2c(C)cc(CNC(=O)c3ccc(CN(C)C)cc3)c2C)cc1

— ChEMBL document CHEMBL1255518, “Novel pyrrole- and 1,2,3-triazole-based 2,3-oxidosqualene cyclase inhibitors” (Bioorg Med Chem Lett, 2010)
